This note sets out measurements from patent US20210179680A1, “POLYPEPTIDE, DERIVATIVES THEREOF, AND APPLICATION THEREOF IN PREPARATION OF DRUGS HAVING RESISTANCE TO PULMONARY FIBROSIS” (priority 2016, published 2021).

Bridge positions count the residues as written; N and C are the ends. Square brackets hold non-standard residues; d marks the D form. Peptide text beside a SMILES is read from it. S5 = C=CCCC[C@](C)(N)C(=O)O

Test [1] has as its target T1, TRB3/MDM2 protein interaction (Homo sapiens, UniProt Q96RU7).
T1 construct: host or cells: BEAS-2B
T1 sequence (Q96RU7 1-358): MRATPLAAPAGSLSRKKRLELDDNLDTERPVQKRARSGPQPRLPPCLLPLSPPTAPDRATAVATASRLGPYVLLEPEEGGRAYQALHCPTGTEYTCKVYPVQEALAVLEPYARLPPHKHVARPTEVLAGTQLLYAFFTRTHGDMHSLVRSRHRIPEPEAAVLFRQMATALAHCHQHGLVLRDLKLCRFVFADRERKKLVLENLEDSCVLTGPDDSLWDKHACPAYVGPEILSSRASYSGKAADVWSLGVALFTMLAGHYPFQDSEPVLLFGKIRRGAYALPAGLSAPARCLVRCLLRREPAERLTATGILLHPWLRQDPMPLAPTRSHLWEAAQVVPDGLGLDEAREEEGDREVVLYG
Nature of the test: Co-immunoprecipitation: inhibition of binding of MDM2 to TRB3 in BEAS-2B cells. It counts as cell-based. As to conditions: BEAS-2B cells with TRB3 expression plasmid, 1 mg/mL polypeptide, 12 hours, co-IP with MDM2 antibody. How it is done: 1. Human lung epithelial BEAS-2B cells (purchased from Institute of Basic Medical Sciences, Chinese Academy of Medical Sciences) were seeded in a 90 mm^2 culture dish. After the cells were adhered to the wall of culture dish, the TRB3 expression plasmid were transferred to the cells according to the method described in Example 5. After 24 hours, 1 mg/mL of the polypeptides MR2, S1, S2, S3, S4, S5, S6, S7, S8, S9, S10 or S11 prepared in Example 1 were added respectively, and the cells were incubated for 12 hours in a 37° C. incubator and then harvested.
2. Co-immunoprecipitation with MDM2 antibody was performed according to the method described in Example 3, followed by detection using TRB3 antibody.

Test [2] has as its system mice with bleomycin-induced pulmonary fibrosis. Description: HE staining pathomorphology and inflammatory score of bleomycin-induced pulmonary fibrosis. The test is classed as in vivo, C57BL/6 mice. Conditions: 2 mg/kg i.p., after 28 days, grade 0-5; for Inflammatory score: Table 3 groups; for Inflammatory scoring: Table 9 groups. The procedure:
Male C57BL/6 mice were fasted overnight, then anesthetized with 45 mg/kg sodium pentobarbital by injection intraperitoneally (i.p.), and intratracheally injected with bleomycin at a dose of 3 U/kg. The specific operation steps are as follows: cut the neck skin of the mouse with as little trauma as possible, expose the trachea with the assistance of elbow ophthalmic forceps, puncture the trachea and inject about 50 μL of bleomycin into the trachea with a microsyringe, rotate the mouse quickly and stand it upright for 5 minutes in order to make bleomycin evenly enter the left and right lobe, thereby constructing an animal model. The whole operation was performed at a surgical table at about […]. Mice in the sham operation group were intratracheally injected with an equal amount of physiological saline for injection.
General tissue changes and tissue products can be visualized by HE staining method, namely Hematoxylin and Eosin staining method, which is the most commonly used staining method for morphology. Among them, hematoxylin dyeing solution is an alkaline dyeing solution, which mainly makes the chromatin in the nucleus and the ribosome in the cytoplasm purple blue; eosin is an acid dye, which mainly makes the components in the cytoplasm and extracellular matrix red. Pulmonary fibrosis models were made according to the method described in Example 2 and administered in groups according to Table 3. After 28 days, the right lower lobe of lung tissue of the experimental animals was taken, and fixed with 4% (v/v) paraformaldehyde and embedded in paraffin. Section was performed on the largest cross-section of the paraffin block in which the lung tissue embedded, and basic pathological changes was observed through HE staining. […] The administration of polypeptides S1-S11 can reduce lung inflammation caused by bleomycin, and effectively ameliorate lung injury and restore normal lung structure.
The inflammatory grading was observed according to the results of HE staining, and the criteria were as follows (grade 0-5): grade “0”: normal tissue; grade “1”: extremely small inflammatory changes; grade “2”: mild to moderate inflammatory changes without apparent destruction of lung tissue structure; grade “3”: moderate inflammatory injury (thickening of alveolar diaphragm); grade “4”: moderate to severe inflammatory injury with formation of tissue mass, or the normal structure of lung tissue was destroyed by localized pneumonia area; grade “5”: severe inflammatory injury, severe destruction of the localized lung tissue structure, resulting in closure of lumen.
Pulmonary fibrosis models were made according to the method described in Example 2 and administered in groups according to Table 9. After 28 days, the right lower lobe of lung tissue of the experimental animals was taken, and fixed by 4% (v/v) paraformaldehyde and embedded in paraffin. Section was performed on the largest cross-section of the paraffin block in which the lung tissue embedded, and basic pathological changes was observed through HE staining.

Take `CSCC[C@H](NC(=O)[C@H](CC(C)C)NC(=O)[C@@H](N)Cc1c[nH]cn1)C(=O)N[C@@H](C)C(=O)N[C@@H](CS)C(=O)N[C@@H](Cc1ccccc1)C(=O)N[C@H](C(=O)N[C@@H](CS)C(=O)N[C@@H](C)C(=O)N[C@@H](CCCCN)C(=O)N[C@@H](CCCCN)C(=O)N[C@@H](CC(C)C)C(=O)N[C@@H](CCCCN)C(=O)N[C@@H](CCCCN)C(=O)N[C@@H](CCCNC(=N)N)C(=O)O)[C@@H](C)O` [MR2] (H-HLMACFTCAKKLKKR-OH; N-terminus and C-terminus assumed): in test [1], the “interaction of TRB3 and MDM2 protein (FIG. 5, in words)” value (from here on “interaction of TRB3 and MDM2 protein”) is on record as “interrupted”. Besides, the Inflammatory score in test [2] is reported as 4. For the compound `CSCC[C@@H]1NC(=O)[C@H](CC(C)C)NC(=O)[C@@](C)(N)CCCC=CCCC[C@@](C)(C(=O)N[C@@H](Cc2ccccc2)C(=O)N[C@H](C(=O)N[C@@H](CS)C(=O)N[C@@H](C)C(=O)N[C@@H](CCCCN)C(=O)N[C@@H](CCCCN)C(=O)N[C@@H](CC(C)C)C(=O)N[C@@H](CCCCN)C(=O)N[C@@H](CCCCN)C(=O)N[C@@H](CCCNC(=N)N)C(=O)O)[C@@H](C)O)NC(=O)[C@H](C)NC1=O` [S1, S5-Leu-Met-Ala-S5-Phe-Thr-Cys-Ala-Lys-Lys-Leu-Lys-Lys-Arg] (H-[S5]LMA[S5]FTCAKKLKKR-OH; staple 1-5; N-terminus and C-terminus assumed), in test [1], the “interaction of TRB3 and MDM2 protein” value is “interrupted”. In test [2], this compound gave an Inflammatory score of 2.667. With `CSCC[C@@H]1NC(=O)[C@@](C)(NC(=O)[C@@H](N)Cc2c[nH]cn2)CCCC=CCCC[C@@](C)(C(=O)N[C@H](C(=O)N[C@@H](CS)C(=O)N[C@@H](C)C(=O)N[C@@H](CCCCN)C(=O)N[C@@H](CCCCN)C(=O)N[C@@H](CC(C)C)C(=O)N[C@@H](CCCCN)C(=O)N[C@@H](CCCCN)C(=O)N[C@@H](CCCNC(=N)N)C(=O)O)[C@@H](C)O)NC(=O)[C@H](CS)NC(=O)[C@H](C)NC1=O` [S2, His-S5-Met-Ala-Cys-S5-Thr-Cys-Ala-Lys-Lys-Leu-Lys-Lys-Arg] (H-H[S5]MAC[S5]TCAKKLKKR-OH; staple 2-6; N-terminus and C-terminus assumed), the “interaction of TRB3 and MDM2 protein” value in test [1] is “interrupted”. In test [2], the Inflammatory score worked out at 2.667. Consider `CC(C)C[C@H](NC(=O)[C@H](CCCCN)NC(=O)[C@H](CCCCN)NC(=O)[C@H](C)NC(=O)[C@H](CS)NC(=O)[C@]1(C)CCCC=CCCC[C@](C)(NC(=O)[C@H](CC(C)C)NC(=O)[C@@H](N)Cc2c[nH]cn2)C(=O)N[C@@H](C)C(=O)N[C@@H](CS)C(=O)N[C@@H](Cc2ccccc2)C(=O)N1)C(=O)N[C@@H](CCCCN)C(=O)N[C@@H](CCCCN)C(=O)N[C@@H](CCCNC(=N)N)C(=O)O` [S3, His-Leu-S5-Ala-Cys-Phe-S5-Cys-Ala-Lys-Lys-Leu-Lys-Lys-Arg] (H-HL[S5]ACF[S5]CAKKLKKR-OH; staple 3-7; N-terminus and C-terminus assumed), for which the “interaction of TRB3 and MDM2 protein” value in test [1] is recorded as “interrupted”. In test [2], the Inflammatory score worked out at 2.5. For `CSCC[C@H](NC(=O)[C@H](CC(C)C)NC(=O)[C@@H](N)Cc1c[nH]cn1)C(=O)N[C@@]1(C)CCCC=CCCC[C@@](C)(C(=O)N[C@@H](C)C(=O)N[C@@H](CCCCN)C(=O)N[C@@H](CCCCN)C(=O)N[C@@H](CC(C)C)C(=O)N[C@@H](CCCCN)C(=O)N[C@@H](CCCCN)C(=O)N[C@@H](CCCNC(=N)N)C(=O)O)NC(=O)[C@H]([C@@H](C)O)NC(=O)[C@H](Cc2ccccc2)NC(=O)[C@H](CS)NC1=O` [S4, His-Leu-Met-S5-Cys-Phe-Thr-S5-Ala-Lys-Lys-Leu-Lys-Lys-Arg] (H-HLM[S5]CFT[S5]AKKLKKR-OH; staple 4-8; N-terminus and C-terminus assumed), the “interaction of TRB3 and MDM2 protein” value in test [1] is “interrupted”. For the same compound, the Inflammatory score in test [2] was determined as 2.833. As for `CSCC[C@H](NC(=O)[C@H](CC(C)C)NC(=O)[C@@H](N)Cc1c[nH]cn1)C(=O)N[C@@H](C)C(=O)N[C@@]1(C)CCCC=CCCC[C@@](C)(C(=O)N[C@@H](CCCCN)C(=O)N[C@@H](CCCCN)C(=O)N[C@@H](CC(C)C)C(=O)N[C@@H](CCCCN)C(=O)N[C@@H](CCCCN)C(=O)N[C@@H](CCCNC(=N)N)C(=O)O)NC(=O)[C@H](CS)NC(=O)[C@H]([C@@H](C)O)NC(=O)[C@H](Cc2ccccc2)NC1=O` [S5, His-Leu-Met-Ala-S5-Phe-Thr-Cys-S5-Lys-Lys-Leu-Lys-Lys-Arg] (H-HLMA[S5]FTC[S5]KKLKKR-OH; staple 5-9; N-terminus and C-terminus assumed), the “interaction of TRB3 and MDM2 protein” value in test [1] was “interrupted”. The compound further registered an Inflammatory score in test [2] of 2.333. For the compound `CSCC[C@H](NC(=O)[C@H](CC(C)C)NC(=O)[C@@H](N)Cc1c[nH]cn1)C(=O)N[C@@H](C)C(=O)N[C@@H](CS)C(=O)N[C@@]1(C)CCCC=CCCC[C@@](C)(C(=O)N[C@@H](CCCCN)C(=O)N[C@@H](CC(C)C)C(=O)N[C@@H](CCCCN)C(=O)N[C@@H](CCCCN)C(=O)N[C@@H](CCCNC(=N)N)C(=O)O)NC(=O)[C@H](C)NC(=O)[C@H](CS)NC(=O)[C@H]([C@@H](C)O)NC1=O` [S6, His-Leu-Met-Ala-Cys-S5-Thr-Cys-Ala-S5-Lys-Leu-Lys-Lys-Arg] (H-HLMAC[S5]TCA[S5]KLKKR-OH; staple 6-10; N-terminus and C-terminus assumed), the “interaction of TRB3 and MDM2 protein” value in test [1] is listed as “interrupted”. The same compound had an Inflammatory score in test [2] of 3.

In the case of `CSCC[C@H](NC(=O)[C@H](CC(C)C)NC(=O)[C@@H](N)Cc1c[nH]cn1)C(=O)N[C@@H](C)C(=O)N[C@@H](CS)C(=O)N[C@@H](Cc1ccccc1)C(=O)N[C@@]1(C)CCCC=CCCC[C@@](C)(C(=O)N[C@@H](CC(C)C)C(=O)N[C@@H](CCCCN)C(=O)N[C@@H](CCCCN)C(=O)N[C@@H](CCCNC(=N)N)C(=O)O)NC(=O)[C@H](CCCCN)NC(=O)[C@H](C)NC(=O)[C@H](CS)NC1=O` [S7, His-Leu-Met-Ala-Cys-Phe-S5-Cys-Ala-Lys-S5-Leu-Lys-Lys-Arg] (H-HLMACF[S5]CAK[S5]LKKR-OH; staple 7-11; N-terminus and C-terminus assumed), the “interaction of TRB3 and MDM2 protein” value in test [1] is on record as “interrupted”. Moreover, the Inflammatory score in test [2] stood at 2. Take “S19: chimeric polypeptide Pep2-MR2, amino acid sequence SEQ ID NO: 19 (HLYVSPWGGHLMACFTCAKKLKKR; chimeric polypeptide Pep2-MR2 S19)”: the Inflammatory scoring in test [2] was 1.833.

“S20: chimeric polypeptide TAT-MR2, amino acid sequence SEQ ID NO: 20 (YGRKKRRQRRRGGHLMACFTCAKKLKKR; chimeric polypeptide TAT-MR2 S20)” gave an Inflammatory scoring in test [2] of 2.333. On the same count and under the same terms, then “S21: chimeric polypeptide Antp-MR2, amino acid sequence SEQ ID NO: 21 (RQIKIWFQNRRMKWKKGGHLMACFTCAKKLKKR; chimeric polypeptide Antp-MR2 S21)”, with 2.667.
